#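 Results reflect a 48-hour exposure of cells in 96-well plates to compound at five concentrations. GI50 = concentration required for 50% inhibition of growth. TGI: total growth inhibition.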
# Columns and labels:
# Assay in all cases: DTP human tumour cell line panel, 48 h
# OVCAR-5 ovarian = test system: OVCAR-5 ovarian
# MCF7 breast = test system: MCF7 breast
# SF-268 CNS = test system: SF-268 CNS
# SNB-75 CNS = test system: SNB-75 CNS
# DU-145 prostate = test system: DU-145 prostate
# M14 melanoma = test system: M14 melanoma
# UACC-257 melanoma = test system: UACC-257 melanoma
# MDA-MB-435 = test system: MDA-MB-435
# SK-MEL-28 melanoma = test system: SK-MEL-28 melanoma
# NCI-H460 lung = test system: NCI-H460 lung
# T-47D breast = test system: T-47D breast
# SN12C renal = test system: SN12C renal
# EKVX NSCLC = test system: EKVX NSCLC
# NCI-H23 lung = test system: NCI-H23 lung
# SNB-19 CNS = test system: SNB-19 CNS
# NCI/ADR-RES ovarian = test system: NCI/ADR-RES ovarian
# SW-620 colon = test system: SW-620 colon
# SK-OV-3 ovarian = test system: SK-OV-3 ovarian
# PC-3 prostate = test system: PC-3 prostate
# HT29 colon = test system: HT29 colon
# HS 578T breast = test system: HS 578T breast
# OVCAR-4 ovarian = test system: OVCAR-4 ovarian
# A549 NSCLC = test system: A549 NSCLC
# SF-295 CNS = test system: SF-295 CNS
# NCI-H522 lung = test system: NCI-H522 lung
# BT-549 breast = test system: BT-549 breast
# HCT-116 colon = test system: HCT-116 colon
# HL-60(TB) leukemia = test system: HL-60(TB) leukemia
# SR leukemia = test system: SR leukemia
# LOX IMVI melanoma = test system: LOX IMVI melanoma
# OVCAR-3 ovarian = test system: OVCAR-3 ovarian
# CCRF-CEM leukemia = test system: CCRF-CEM leukemia
# SK-MEL-2 melanoma = test system: SK-MEL-2 melanoma
# MOLT-4 leukemia = test system: MOLT-4 leukemia
# KM12 colon = test system: KM12 colon
# RXF 393 renal = test system: RXF 393 renal
# COLO 205 colon = test system: COLO 205 colon
# TK-10 renal = test system: TK-10 renal
# HCC-2998 colon = test system: HCC-2998 colon
# HCT-15 colon = test system: HCT-15 colon
# NCI-H226 lung = test system: NCI-H226 lung
# CAKI-1 renal = test system: CAKI-1 renal
# IGROV1 ovarian = test system: IGROV1 ovarian
# UO-31 renal = test system: UO-31 renal
# SF-539 CNS = test system: SF-539 CNS
# SK-MEL-5 melanoma = test system: SK-MEL-5 melanoma
# MALME-3M melanoma = test system: MALME-3M melanoma
# ACHN renal = test system: ACHN renal
# K-562 leukemia = test system: K-562 leukemia
# OVCAR-8 ovarian = test system: OVCAR-8 ovarian
# U251 CNS = test system: U251 CNS
# 786-0 renal = test system: 786-0 renal
# HOP-62 NSCLC = test system: HOP-62 NSCLC
# UACC-62 melanoma = test system: UACC-62 melanoma
# RPMI-8226 leukemia = test system: RPMI-8226 leukemia
# MDA-MB-231 breast = test system: MDA-MB-231 breast
# A498 renal = test system: A498 renal
# HOP-92 NSCLC = test system: HOP-92 NSCLC
compound,measurement,setting,value
COc1cc(-c2nc3sccn3c2-c2ccnc(NCCNS(=O)(=O)c3ccc(Cl)cc3)n2)ccc1F,GI50,OVCAR-5 ovarian,55 µM
same,TGI,OVCAR-5 ovarian,> 100 µM
same,GI50,MCF7 breast,3240 nM
same,TGI,MCF7 breast,> 100 µM
same,GI50,SF-268 CNS,5.75 µM
same,TGI,SF-268 CNS,> 100 µM
same,GI50,SNB-75 CNS,4.48 µM
same,TGI,SNB-75 CNS,> 100 µM
same,GI50,DU-145 prostate,3620 nM
same,TGI,DU-145 prostate,> 100 µM
same,GI50,M14 melanoma,3620 nM
same,TGI,M14 melanoma,> 100000 nM
same,GI50,UACC-257 melanoma,4.47 µM
same,TGI,UACC-257 melanoma,> 100 µM
same,GI50,MDA-MB-435,3630 nM
same,TGI,MDA-MB-435,58.1 µM
same,GI50,SK-MEL-28 melanoma,4.37 µM
same,TGI,SK-MEL-28 melanoma,> 100 µM
same,GI50,NCI-H460 lung,5160 nM
same,TGI,NCI-H460 lung,> 100 µM
same,GI50,T-47D breast,1440 nM
same,TGI,T-47D breast,8.46 µM
same,GI50,SN12C renal,4110 nM
same,TGI,SN12C renal,> 100 µM
same,GI50,EKVX NSCLC,5.04 µM
same,TGI,EKVX NSCLC,> 100 µM
same,GI50,NCI-H23 lung,3860 nM
same,TGI,NCI-H23 lung,> 100000 nM
same,GI50,SNB-19 CNS,74 µM
same,TGI,SNB-19 CNS,> 100 µM
same,GI50,NCI/ADR-RES ovarian,2890 nM
same,TGI,NCI/ADR-RES ovarian,> 100 µM
same,GI50,SW-620 colon,10.8 µM
same,TGI,SW-620 colon,> 100 µM
same,GI50,SK-OV-3 ovarian,6.82 µM
same,TGI,SK-OV-3 ovarian,> 100 µM
same,GI50,PC-3 prostate,577 nM
same,TGI,PC-3 prostate,> 100 µM
same,GI50,HT29 colon,4.28 µM
same,TGI,HT29 colon,> 100 µM
same,GI50,HS 578T breast,8.05 µM
same,TGI,HS 578T breast,> 100 µM
same,GI50,OVCAR-4 ovarian,3.72 µM
same,TGI,OVCAR-4 ovarian,> 100 µM
same,GI50,A549 NSCLC,3860 nM
same,TGI,A549 NSCLC,> 100 µM
same,GI50,SF-295 CNS,4070 nM
same,TGI,SF-295 CNS,> 100 µM
same,GI50,NCI-H522 lung,2590 nM
same,TGI,NCI-H522 lung,> 100 µM
same,GI50,BT-549 breast,2610 nM
same,TGI,BT-549 breast,> 100 µM
same,GI50,HCT-116 colon,3560 nM
same,TGI,HCT-116 colon,> 100 µM
same,GI50,HL-60(TB) leukemia,3740 nM
same,TGI,HL-60(TB) leukemia,> 100 µM
same,GI50,SR leukemia,3940 nM
same,TGI,SR leukemia,> 100 µM
same,GI50,LOX IMVI melanoma,3390 nM
same,TGI,LOX IMVI melanoma,> 100 µM
same,GI50,OVCAR-3 ovarian,4.94 µM
same,TGI,OVCAR-3 ovarian,> 100 µM
same,GI50,CCRF-CEM leukemia,480 nM
same,TGI,CCRF-CEM leukemia,> 100 µM
same,GI50,SK-MEL-2 melanoma,3.46 µM
same,TGI,SK-MEL-2 melanoma,35.3 µM
same,GI50,MOLT-4 leukemia,1420 nM
same,TGI,MOLT-4 leukemia,> 100 µM
same,GI50,KM12 colon,4.26 µM
same,TGI,KM12 colon,> 100 µM
same,GI50,RXF 393 renal,1640 nM
same,TGI,RXF 393 renal,> 100 µM
same,GI50,COLO 205 colon,3.48 µM
same,TGI,COLO 205 colon,> 100 µM
same,GI50,TK-10 renal,9.44 µM
same,TGI,TK-10 renal,> 100 µM
same,GI50,HCC-2998 colon,5.82 µM
same,TGI,HCC-2998 colon,> 100 µM
same,GI50,HCT-15 colon,3.33 µM
same,TGI,HCT-15 colon,> 100 µM
same,GI50,NCI-H226 lung,2.37 µM
same,TGI,NCI-H226 lung,10.5 µM
same,GI50,CAKI-1 renal,4890 nM
same,TGI,CAKI-1 renal,> 100 µM
same,GI50,IGROV1 ovarian,3 µM
same,TGI,IGROV1 ovarian,> 100 µM
same,GI50,UO-31 renal,2720 nM
same,TGI,UO-31 renal,> 100 µM
same,GI50,SF-539 CNS,6.98 µM
same,TGI,SF-539 CNS,> 100000 nM
same,GI50,SK-MEL-5 melanoma,1870 nM
same,TGI,SK-MEL-5 melanoma,4.19 µM
same,GI50,MALME-3M melanoma,3.35 µM
same,TGI,MALME-3M melanoma,> 100 µM
same,GI50,ACHN renal,2770 nM
same,TGI,ACHN renal,> 100 µM
same,GI50,K-562 leukemia,2.76 µM
same,TGI,K-562 leukemia,> 100 µM
same,GI50,OVCAR-8 ovarian,2710 nM
same,TGI,OVCAR-8 ovarian,> 100 µM
same,GI50,U251 CNS,7.67 µM
same,TGI,U251 CNS,> 100 µM
same,GI50,786-0 renal,7.77 µM
same,TGI,786-0 renal,> 100000 nM
same,GI50,HOP-62 NSCLC,5010 nM
same,TGI,HOP-62 NSCLC,> 100 µM
same,GI50,UACC-62 melanoma,1390 nM
same,TGI,UACC-62 melanoma,5.2 µM
CN(CCCCCl)P(=O)(OCc1ccc([N+](=O)[O-])o1)OCC1OC(n2ccc(N)nc2=O)C(F)(F)C1O (stereo not drawn),GI50,OVCAR-5 ovarian,1.92 µM
same,TGI,OVCAR-5 ovarian,> 100 µM
same,GI50,MCF7 breast,450 nM
same,TGI,MCF7 breast,> 49 µM
same,GI50,SF-268 CNS,0.257 µM
same,GI50,SNB-75 CNS,12.5 µM
same,TGI,SNB-75 CNS,97.5 µM
same,GI50,DU-145 prostate,188 nM
same,TGI,DU-145 prostate,> 28.4 µM
same,GI50,M14 melanoma,53.7 nM
same,TGI,M14 melanoma,269 nM
same,GI50,UACC-257 melanoma,17.2 µM
same,TGI,UACC-257 melanoma,> 100 µM
same,GI50,MDA-MB-435,473 nM
same,TGI,MDA-MB-435,> 50.9 µM
same,GI50,RPMI-8226 leukemia,1870 nM
same,TGI,RPMI-8226 leukemia,> 100 µM
same,GI50,SK-MEL-28 melanoma,43.1 µM
same,TGI,SK-MEL-28 melanoma,> 100 µM
same,GI50,NCI-H460 lung,300 nM
same,GI50,SN12C renal,363 nM
same,TGI,SN12C renal,9.62 µM
same,GI50,EKVX NSCLC,2.48 µM
same,TGI,EKVX NSCLC,> 75.4 µM
same,GI50,NCI-H23 lung,74.2 nM
same,TGI,NCI-H23 lung,1530 nM
same,GI50,SNB-19 CNS,0.257 µM
same,GI50,NCI/ADR-RES ovarian,419 nM
same,TGI,NCI/ADR-RES ovarian,> 100 µM
same,GI50,SW-620 colon,> 62 µM
same,TGI,SW-620 colon,> 100 µM
same,GI50,SK-OV-3 ovarian,2.22 µM
same,TGI,SK-OV-3 ovarian,> 100 µM
same,GI50,PC-3 prostate,1820 nM
same,TGI,PC-3 prostate,99.3 µM
same,GI50,HT29 colon,29.7 µM
same,TGI,HT29 colon,> 100 µM
same,GI50,HS 578T breast,> 68 µM
same,TGI,HS 578T breast,> 100 µM
same,GI50,A549 NSCLC,730 nM
same,TGI,A549 NSCLC,> 59.5 µM
same,GI50,SF-295 CNS,878 nM
same,TGI,SF-295 CNS,> 54.6 µM
same,GI50,NCI-H522 lung,> 39000 nM
same,TGI,NCI-H522 lung,> 100 µM
same,GI50,BT-549 breast,1570 nM
same,TGI,BT-549 breast,88.2 µM
same,GI50,HCT-116 colon,1160 nM
same,TGI,HCT-116 colon,> 100 µM
same,GI50,HL-60(TB) leukemia,1560 nM
same,TGI,HL-60(TB) leukemia,17.7 µM
same,GI50,SR leukemia,801 nM
same,TGI,SR leukemia,5.63 µM
same,GI50,LOX IMVI melanoma,754 nM
same,TGI,LOX IMVI melanoma,> 40.6 µM
same,GI50,OVCAR-3 ovarian,3.15 µM
same,TGI,OVCAR-3 ovarian,> 45.5 µM
same,GI50,MDA-MB-231 breast,> 49.3 µM
same,TGI,MDA-MB-231 breast,> 100 µM
same,GI50,SK-MEL-2 melanoma,> 80.3 µM
same,TGI,SK-MEL-2 melanoma,> 100 µM
same,GI50,MOLT-4 leukemia,379 nM
same,TGI,MOLT-4 leukemia,8.92 µM
same,GI50,KM12 colon,14.8 µM
same,TGI,KM12 colon,> 73.9 µM
same,GI50,A498 renal,5.8 µM
same,TGI,A498 renal,> 74.5 µM
same,GI50,RXF 393 renal,> 100000 nM
same,TGI,RXF 393 renal,> 100 µM
same,GI50,COLO 205 colon,7.47 µM
same,TGI,COLO 205 colon,> 41.6 µM
same,TGI,TK-10 renal,> 82.7 µM
same,GI50,HCC-2998 colon,3.15 µM
same,TGI,HCC-2998 colon,49.1 µM
same,GI50,HCT-15 colon,> 73.5 µM
same,TGI,HCT-15 colon,> 100 µM
same,GI50,NCI-H226 lung,15.7 µM
same,TGI,NCI-H226 lung,> 100 µM
same,GI50,CAKI-1 renal,223 nM
same,GI50,IGROV1 ovarian,35.4 µM
same,TGI,IGROV1 ovarian,> 100 µM
same,TGI,UO-31 renal,> 100 µM
same,GI50,SF-539 CNS,0.0417 µM
same,TGI,SF-539 CNS,427 nM
same,GI50,HOP-92 NSCLC,155 nM
same,TGI,HOP-92 NSCLC,830 nM
same,GI50,SK-MEL-5 melanoma,3200 nM
same,TGI,SK-MEL-5 melanoma,> 67.1 µM
same,GI50,ACHN renal,37.4 nM
same,GI50,K-562 leukemia,13 µM
same,TGI,K-562 leukemia,> 100 µM
same,GI50,OVCAR-8 ovarian,108 nM
same,GI50,U251 CNS,0.77 µM
same,TGI,U251 CNS,> 86.5 µM
same,GI50,786-0 renal,0.0614 µM
same,TGI,786-0 renal,1500 nM
same,GI50,HOP-62 NSCLC,494 nM
same,TGI,HOP-62 NSCLC,> 100 µM
same,GI50,UACC-62 melanoma,1100 nM
same,TGI,UACC-62 melanoma,> 100 µM
